Assay results: patent US10947188B2, “Small molecule ferroptosis inducers” (THE TRUSTEES OF COLUMBIA UNIVERSITY IN THE CITY OF NEW YORK, priority 2016, dated 2021)
Like-named read-outs stand apart in the source and are kept apart here. Where a SMILES comes first, the peptide text is derived from it. The star is where a group is joined. Cbz = O=C(OCc1ccccc1)*

Test system: HT-1080
Test: Modulatory profiling: Alamar Blue viability, lethal compound cotreated with death modulator (EC50, AUC)
Format: cell-based
Design: AUC, modulator HT.3MA / AUC, modulator HT.ALLN / AUC HT.ATA / AUC HT.ActD / AUC HT.BHA / AUC HT.BHT / AUC HT.BocD / AUC HT.CHX / AUC HT.Co2+ / AUC HT.DPQ / AUC HT.EGTA / AUC HT.Lmim / AUC HT.NAD+ / AUC HT.Nec-1 / AUC HT.SP600125 / AUC HT.TLCK / AUC HT.U0126: unit not given beside the values
Details: for AUC HT.ATA: HT-1080, modulator ATA; for AUC HT.ActD: HT-1080, modulator ActD; for AUC HT.BHA: HT-1080, modulator BHA; for AUC HT.BHT: HT-1080, modulator BHT; for AUC HT.BocD: HT-1080, modulator BocD; for AUC HT.CHX: HT-1080, modulator CHX; for AUC HT.Co2+: HT-1080, modulator Co2+; for AUC HT.CspA: HT-1080, modulator CspA; for AUC HT.DPQ: HT-1080, modulator DPQ; for AUC HT.Gd3+: HT-1080, modulator Gd3+; for AUC HT.LNAME: HT-1080, modulator LNAME; for AUC HT.Lmim: HT-1080, modulator Lmim; for AUC HT.NAD+: HT-1080, modulator NAD+; for AUC HT.NMMA: HT-1080, modulator NMMA; for HT.atoc (AUC) / HT.bCarotene (AUC) / HT.deferox (AUC) / HT.digoxin (AUC) / HT.trolox (AUC) / HT.zVAD (AUC) / EC50: HT-1080; for HT.atoc (AUC): modulator atoc; for HT.bCarotene (AUC): modulator bCarotene; for HT.deferox (AUC): modulator deferox; for HT.digoxin (AUC): modulator digoxin; for HT.trolox (AUC): modulator trolox; for HT.zVAD (AUC): modulator zVAD; for EC50: Homo sapiens, HT-1080, 48 h, 48 h; for AUC HT.Nec-1: HT-1080, modulator Nec-1; for AUC HT.Pepstatin: HT-1080, modulator Pepstatin; for AUC HT.SP600125: HT-1080, modulator SP600125; for AUC HT.TLCK: HT-1080, modulator TLCK; for AUC HT.U0126: HT-1080, modulator U0126; for AUC, modulator HT.3MA / AUC, modulator HT.ALLN: HT-1080 cells, modulatory profile value (AUC); for AUC, modulator HT.3MA: lethal compound cotreated with modulator 3MA; for AUC, modulator HT.ALLN: lethal compound cotreated with modulator ALLN

Compound	AUC HT.ATA	AUC HT.ActD	AUC HT.BHA	AUC HT.BHT	AUC HT.BocD	AUC HT.CHX	AUC HT.Co2+	AUC HT.CspA	AUC HT.DPQ	AUC HT.Gd3+	AUC HT.LNAME	AUC HT.Lmim	AUC HT.NAD+	AUC HT.NMMA	HT.atoc (AUC)	HT.bCarotene (AUC)	HT.deferox (AUC)	HT.digoxin (AUC)	HT.trolox (AUC)	HT.zVAD (AUC)	also measured
N/C(Cc1ccc(Cl)cc1)=N\OC(=O)c1cccc2ccccc12 [CIL70]	−0.004378	−0.02914	0.1062	−0.03541	−0.03004	−0.02631	0.01978	−0.0468	0.02696	−0.01357	0.005993	0.2198	0.04321	−0.005818	0.2733	−0.001707	0.2561	−0.1366	0.1205	0.002272	AUC HT.EGTA (HT-1080, modulator EGTA): 0.01851; effect of ferroptosis inhibitors (iron chelators and lipophilic antioxidants) on lethality in modulatory profiling (HT-1080 and BJeLR): suppression by canonical ferroptosis inhibitors; EC50 (DMSO): 4.44 µM; EC50 (cotreated with MEK inh U0126): 10.3 µM; EC50 (cotreated with antioxidant Atoc): 32.2 µM; EC50 (cotreated with antioxidant BHA): 13.3 µM; EC50 (cotreated with antioxidant BHT): 6.5 µM; EC50 (cotreated with antioxidant Trolox): 11.1 µM; EC50 (cotreated with iron-chelator Deferoxamine): 157 µM; EC50 (cotreated with iron-chelator Lmim): 47.8 µM
CCOc1ccccc1-n1c(C(C)N2CCN(C(=O)COc3ccc(Cl)cc3)CC2)nc2ccccc2c1=O (centres unmarked) [erastin, reference compound]	−0.1315	−0.1111	0.1748	0.1243	−0.003341	0.05504	−0.2142	0.02449	0.05672	−0.01326	−0.008731	0.2178	−0.02996	0.006826	0.2643	−0.0215	0.3025	−0.03393	0.2077	−0.07207	AUC HT.EGTA (HT-1080, modulator EGTA): 0.01444; AUC HT.Nec-1: −0.02551; AUC HT.Pepstatin: −0.02573; AUC HT.SP600125: −0.03688; AUC HT.TLCK: 0.1167; AUC HT.U0126: 0.1525; AUC, modulator HT.3MA: −0.04578; AUC, modulator HT.ALLN: −0.06856
O=c1c(N2CCCC2)c(Cl)cnn1-c1ccccc1 [CIL20]	−0.001276	−0.006608	0.0001715	−0.08075	0.01009	0.1212	0.1205	−0.05648	−0.03779	−0.02607	0.01703	0.002914	0.05985	−0.0209	0.0292	0.008618	0.03912	0.01851	0.03002	−0.02079	AUC HT.EGTA (HT-1080, modulator EGTA): −0.01805; AUC, modulator HT.3MA: 0.004881; AUC, modulator HT.ALLN: 0.09673
CC(C)=CCCC1=CCC(CNCCCN(C)C)C(C)C1 (centres unmarked) [CIL28]	0.06113	−0.01352	−0.1362	−0.1108	0.01462	0.0328	−0.03292	−0.01858	0.04404	−0.02583	−0.0045	0.001311	0.007089	−0.009763	0.1068	−0.03341	−0.04312	−0.007104	−0.03025	−0.009003	AUC HT.EGTA (HT-1080, modulator EGTA): 0.005868; AUC, modulator HT.3MA: 0.0937; AUC, modulator HT.ALLN: 0.04719
CS[C@H]1SC[C@H]2C(=O)N(C)[C@@H](C(C)C)C(=O)OC[C@@H](NC(=O)c3cnc4ccccc4n3)C(=O)N[C@@H](C)C(=O)N(C)[C@@H]1C(=O)N(C)[C@@H](C(C)C)C(=O)OC[C@@H](NC(=O)c1cnc3ccccc3n1)C(=O)N[C@@H](C)C(=O)N2C [Echinomycin]	0.04087	0.06604	0.02424	−0.04076	0.07385	0.1436	0.1492	−0.08426	0.006918	0.01526	0.01178	0.06784	0.178	−0.0009733	0.1464	−0.004968	0.1665	0.09969	−0.02423	0.07367	AUC HT.EGTA (HT-1080, modulator EGTA): 0.006916; AUC HT.Nec-1: 0.02093; AUC HT.Pepstatin: 0.006861; AUC HT.SP600125: 0.08228; AUC HT.TLCK: 0.006436; AUC HT.U0126: 0.01676; AUC, modulator HT.3MA: 0.3083; AUC, modulator HT.ALLN: 0.084
CC(C)C[C@@H](C=O)NC(=O)[C@H](CC(C)C)NC(=O)[C@H](CC(C)C)NC(=O)OCc1ccccc1 [MG132, reference compound] (Cbz-Leu-Leu-Leu-aldehyde)	0.005768	−0.06417	−0.1238	−0.1271	0.002051	0.04854	−0.05705	−0.3221	−0.02406	−0.011	5.1006E−05	0.001338	0.03798	0.01064	0.04884	7.0861E−05	−0.1162	0.08352	−0.01616	−0.0992	AUC HT.EGTA: 0.007775; AUC HT.Nec-1: −0.09728; AUC HT.Pepstatin: −0.02733; AUC HT.SP600125: −0.03431; AUC HT.TLCK: 0.01546; AUC HT.U0126: −0.071; AUC, modulator HT.3MA: −0.03392; AUC, modulator HT.ALLN: −0.2149
CC[C@@]1(O)C(=O)OCc2c1cc1n(c2=O)Cc2cc3ccccc3nc2-1 [Camptothecin]	−0.00483	−0.1287	0.04861	−0.08411	0.03455	0.0562	0.1416	−0.1552	0.008143	0.02887	0.01135	0.0722	0.06078	0.01978	0.004008	0.002837	0.1288	0.1442	0.01719	0.03249	AUC HT.EGTA (HT-1080, modulator EGTA): 0.01652; AUC HT.Nec-1: 0.01102; AUC HT.Pepstatin: 0.005918; AUC HT.SP600125: 0.02319; AUC HT.TLCK: 0.04383; AUC HT.U0126: 0.0002717; AUC, modulator HT.3MA: 0.0192; AUC, modulator HT.ALLN: 0.03354
